Reference: patent US10391066B2, “Compositions and methods for the treatment of Parkinson's disease” (Texas Tech University System, priority 2012, dated 2019)

Assays:
PP2A [1] = biological target: T1, PP2A (Homo sapiens, UniProt P67775); assay: PP2A activity in response to ceramides and FTY720 compounds (FIG. 8); format: biochemical; settings: for PP2A activity in response to Ceramides: FIG. 8A; for PP2A activity in response to compounds: FIG. 8B, C2 ceramide as internal control
rPP2A = rPP2A (Homo sapiens, UniProt P67775); assay: recombinant PP2A (rPP2A) activity with FTY720 compounds; format: biochemical; settings: versus rPP2A alone; for effect on rPP2A activity: across tested concentrations
Sequence of rPP2A (P67775 whole entry): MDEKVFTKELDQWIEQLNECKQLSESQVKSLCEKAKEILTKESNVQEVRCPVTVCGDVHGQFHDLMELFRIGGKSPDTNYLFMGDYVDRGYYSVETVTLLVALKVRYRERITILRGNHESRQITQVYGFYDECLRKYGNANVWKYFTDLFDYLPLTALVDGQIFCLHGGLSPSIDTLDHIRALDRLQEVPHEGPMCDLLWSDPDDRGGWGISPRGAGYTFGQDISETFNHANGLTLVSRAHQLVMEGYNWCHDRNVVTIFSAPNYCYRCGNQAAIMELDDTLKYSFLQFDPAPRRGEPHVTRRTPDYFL

S1P receptors = settings: with the exception of S1P2; cited from earlier work
[2] = tested on: control and mutant A53T Syn PD mice; assay: Anxiety levels in control and mutant A53T Syn PD mice (FIG. 7B); format: in vivo, mouse
PP2A [3] = biological target: T1, PP2A; assay: PP2A activity, cell free assay (FIG. 4A); format: biochemical
PP2A [4] = assay: PP2A activity, cellular assay (FIG. 4B); format: cell-based
[5] = tested on: BDNF expression in neurons; assay: BDNF trophic factor expression in neurons (FIG. 6); format: cell-based
[6] = tested on: C57/B16 Mice mouse model of Parkinson's disease; assay: Paraquat mouse model of Parkinson's disease, brain immunohistochemistry (FIG. 5); format: in vivo
[7] = tested on: control and mutant A53T Syn PD mice; assay: Grip strength in control and mutant A53T Syn PD mice (FIG. 7A); format: in vivo, mouse; settings: 5 month old mice, FTY720 twice a week for 14 weeks versus vehicle
[8] = tested on: PP2A in mouse adrenal gland; assay: PP2A activity in mouse adrenal gland after single dosing (FIG. 9B, 9D, 9F); format: in vivo; settings: for effect on PP2A in mouse adrenal gland, IV delivery: single dose (FIG. 9D, 9F)

T1 sequence (P67775 whole entry): as above

Row | Structure (SMILES) | PP2A activity in response to Ceramides (PP2A [1]) | PP2A activity in response to compounds (PP2A [1]) | effect on rPP2A activity at 10 uM (rPP2A) | effect on rPP2A activity (rPP2A) | agonism of S1P receptors (S1P receptors) | effect on PP2A in mouse adrenal gland, IV delivery [8] | other results
1 | CCCCCCCCCCCCC/C=C/[C@@H](O)[C@H](CO)NC(C)=O [C2 ceramide] | able to stimulate PP2A activity | significantly stimulate PP2A activity | – | – | – | – | –
2 | CCCCCCCCCCCCCC=CC(O)C(CO)NC(=O)CCCCC (stereo not shown) [Ceramide C6] | able to stimulate PP2A activity | – | – | – | – | – | –
3 | CCCCCCCCc1ccc(CCC(N)(CO)CO)cc1 [FTY720, 2-amino-2-[2-(4-octylphenyl)ethyl]-1,3-propanediol] | – | significantly stimulate PP2A activity | not significantly greater than rPP2A alone | increases rPP2A activity more at lower concentrations than at higher concentrations | potent agonists of S1P receptors with the exception of S1P2 | – | anxiety levels [2]: reduces anxiety levels; PP2A activity, cell free (PP2A [3]): stimulates PP2A activity; PP2A activity, cellular (PP2A [4]): stimulates PP2A activity; BDNF expression at the message level ([5]; neurons (FIG. 6B)): increased BDNF expression at the message level; BDNF at the protein level ([5]; neurons treated with FTY720, blot (FIG. 6A)): increased BDNF at the protein level; Paraquat toxicity ([6]; C57/B16 mice, FTY720 given before paraquat (PQ)): blocks Paraquat Toxicity; paraquat-stimulated increase in Syn in dopamine neurons ([6]; PQ given after FTY720, immunohistochemistry, TH-labelled neurons): blocks the increase in Syn; neuroinflammation as measured by microglial Ibal staining ([6]; adjacent tissue section): reduces neuroinflammation; mouse grip strength [7]: improves mouse grip strength
4 | CCCCCCCCc1ccc(CCC(CO)(CO)NC(C)=O)cc1 [FTY720-C2, N-(1-hydroxy-2-(hydroxymethyl)-4-(4-octylphenyl)butan-2-yl)ethanamide] | – | significantly stimulate PP2A activity | – | biggest effect | – | stimulatory effects | effect on PP2A in mouse adrenal gland, oral delivery ([8]; gavage, single dose (FIG. 9B)): stimulatory effects
5 | CCCCCCCCc1ccc(CCC(CO)(CO)NC(=O)CC[P+](c2ccccc2)(c2ccccc2)c2ccccc2)cc1 [FTY720-Mitoxy, (3-(1-hydroxy-2-(hydroxymethyl)-4-(4-octylphenyl)butan-2-ylamino)-3-oxopropyl) triphenyl phosphonium bromide] | – | significantly stimulate PP2A activity | significant inhibitory effect | moderate effect | – | stimulatory effects | –
6 | CCCCCCCCc1ccc(CCC(N)(CO)COP(=O)(O)O)cc1 (stereo not shown) [FTY720-P, 2-amino-2-[2-(4-octylphenyl)ethyl]propane-1,3-diol phosphate] | – | – | – | – | potent agonists of S1P receptors with the exception of S1P2 | – | –
